From US7220729B2, “Huntington's Disease Treatment” (Academia Sinica, priority 2004, dated 2007)

Legend:
[1] = test system: R6/2 mice; assay: Locomotor activity (beam breaks in activity monitor) of R6/2 mice; format: in vivo, mouse; settings: week 2 after administration, 5 μg/g i.p. daily, vs vehicle, statistically significant (Student's t-test)
Description: Twenty-four hours after each administration, the locomotor activity of each mouse was measured for 10 minutes according to the method described in Lee et al., Chin. J. Physiol. 1992;35:317–336. Briefly, each mouse was placed in an activity monitor (Coulbourn Instruments, Allentown, Pa., USA) equipped with 16×16 horizontal sensors, which were used to monitor the mouse's floor position. The locomotor activity was measured by the total number of beam breaks in an X-Y plane recorded every 10 minutes.

[2] = test system: R6/2 mice; assay: Blood glucose level in R6/2 mice; format: in vivo, mouse; settings: chronic treatment, untreated R6/2 higher than wild type by approximately 1-fold
Description: Hyperglycemia has been found in HD patients and R6/2 mice. […] The above-described R6/2 mice and wild type littermates were decapitated and blood samples (1 to 1.5 ml) were collected from each mouse using standard techniques. Blood glucose levels were measured using ABBOTT Alcyon 300i (ABBOTT Labs, USA).

[3] = test system: adenylyl cyclase; assay: Adenylyl cyclase activity assay on striatal membrane fractions; format: biochemical, mouse; settings: striatal membranes of R6/2 mice compared with wild type mice
Description: Briefly, striatal tissues were isolated from the mice and sonicated in a lysis buffer (0.4 mM EDTA, 1 mM EGTA, 25 mM Tris-HCl, 250 mM sucrose, 0.1 mM leupeptin, and 40 μM PMSF, pH 7.4) using a W-380 sonicator (Ultrasonics, Farmingdale, N.Y., USA) at a setting of 20% output power for a total of 45 seconds. The resultant homogenate was centrifuged at 50,000×g for 30 minutes and the P1 membrane fractions and the soluble fractions were collected. The adenylyl cyclase activity assay was performed at 37° C. for 10 minutes in a 400-μl reaction mixture containing 1 mM ATP, 100 mM NaCl, 50 mM Hepes, 0.2 mM EGTA, 100 μM rolipram, 6 mM MgCl2, 1 μM GTP, and 20 μg of membrane protein. The reactions were stopped by adding 0.6 ml of 10% TCA. The cAMP formed was isolated by Dowex chromatography (Sigma, St. Louis, Mo., USA) and was assayed to the method described in Chern et al. The enzymatic reaction was in a linear range for up to 30 minutes with up to 40 μg of membrane proteins.

[4] = test system: R6/2 mice; assay: Striatal atrophy / lateral ventricle enlargement on coronal brain sections; format: in vivo, mouse; settings: R6/2 mice at 12 weeks old; vehicle 1.63±0.14, p<0.001, n=5
Description: Striatal atrophy is one of the major characteristics of HD. In R6/2 mice, marked progressive atrophy of the striatum was found at the age of 3 to 13 weeks (Ferrante et al., J. Neurosci. 2000;20:4389–4397). Thus, the above-described CGS 21680-treated and vehicle-treated R6/2 mice were examined for striatal atrophy.
Each of the mice was anesthetized using sodium pentobarbital (100 μg/g), and intracardially perfused with 4% paraformaldehyde in 0.1 M phosphate buffer (PB, pH 7.4). The brain was carefully removed, post-fixed with 4% paraformaldehyde/0.1 M PB for 2–5 hours, and immersed in 30% glycerol in 0.1 M PB. Then, it was cut at 20 μm on a freezing microtome (CM3050, Leica Microsystems Nussloch, Nussloch, Germany). Serial-cut coronal tissue sections from the rostral segment of the neostriatum to the level of the anterior commissure (interaural 5.34 mm/bregma 1.54 mm to interaural 3.7 mm/bregma −0.1 mm) were used to define atrophy of the striatum and enlargement of the lateral ventricles. Total areas of the striatum or the lateral ventricles were measured using the software NIH Image 1.62. Nissl-stained sections were quantified by counting the corresponding types of cells in defined areas of photomicrographs taken using a phase contrast microscope.

[5] = test system: AMPK; assay: Western blot of AMPK protein and Thr172 phosphorylation in striatal cytosolic fraction of treated R6/2 mice; format: in vivo, mouse; settings: striatum of R6/2 mice, 5 μg/g i.p. once a day up to 3.5 weeks
Description: Male R6/2 mice and wild type littermates were obtained from Jackson Laboratories (Bar Harbor, Me., USA) and were mated with female control mice (B6CBAFI/J). Each offspring was genotyped by PCR using genomic DNA extracted from the tail to ensure that the number of CAG repeats remained approximately 150. Primers used were [NT] ID NO:1) and [NT] ID NO:2). All animal experiments were performed under protocols approved by the Academia Sinica Institutional Animal Care and Utilization Conunittee, Taiwan. […] Then, the striatal cytosolic fraction was collected from each mouse and subjected to Western blot analysis using the standard techniques as described in Rutter et al., Biochem. J. 2003;375:1-16. More specifically, membrane fractions were combined with a 2× sample buffer containing 125 mM Tris-HCl (pH 6.8), 20% glycerol, 1% SDS, 15% 2-mercaptoethanol, 200 mM dithiothreitol, and 0.01% bromphenol blue; boiled for 5 minutes; centrifuged to remove the insoluble material; and then separated on 8% separating gels. […] The phosphorylation of AMPK at Thr172 was quantified by densitometry of the anti-AMPK-P immunoreactive bands using ImageQuant v.3.15 (Molecular Dynamics).

[6] = test system: R6/2 mice; assay: Motor coordination by rotarod performance; format: in vivo, mouse; settings: treatment from 7 weeks of age, vs vehicle
Text: The motor coordination of each mouse was also examined by rotarod performance using standard techniques. […] It is known that the motor coordination of an R6/2 mouse starts to deteriorate at the age of 4 weeks, which is 3 weeks prior to the time of the CGS 21680 treatment. It is expected that CGS 21680 administration prior to 4 week of age might improve the motor coordination of an R6/2 mouse.

[7] = test system: NGF, CNTF, GDNF, BDNF, bFGF; assay: Quantitative real-time RT-PCR of striatal neurotrophic factors; format: in vivo, mouse; settings: R6/2 mice, mRNA normalized to GAPDH, vs vehicle
Description: Total RNA was purified from each of the above-described administrated mice and their littermates, and was treated with RNase-free DNase I (RQI, Promega, Madison, Wis., USA) following the manufacturer's protocol to remove genomic DNA. cDNA synthesis and quantitative real-time RT-PCR were performed using the […] One-Step RT-PCR kit (Clontech, Palo Alto, Calif., USA) containing SYBR Green I (BioWhittaker Molecular Applications; BMA, Rockland, Me., USA). More specifically, the first-strand cDNA was synthesized at 50° C. for 60 minutes and denatured at 95° C. for 10 minutes. PCR reactions were then carried out in the same tubes using the following conditions for 40 cycles: 95° C. for 30 seconds, 60° C. for 30 seconds, and 68° C. for 60 seconds.
Independent RT-PCRs were performed using the same RNAs for each neurotrophic factor gene (target gene) and glyceraldehyde-3-phosphate dehydrogenase (GAPDH, reference gene). Real-time fluorescence monitoring and melting curve analysis were performed using Rotor-Gene 3000 (Corbett Research, Sydney, Australia). […] Data were analyzed by the Rotor-Gene 3000 operating software version 4.6.94 (Corbett Research) to determine the threshold cycle (CT) above the background for each reaction. The relative transcript amount of each target gene, calculated using standard curves of serial RNA dilutions, was normalized to that of GAPDH amplified from the same RNA.

In the case of `CCNC(=O)[C@H]1O[C@@H](n2cnc3c(N)nc(NCCc4ccc(CCC(=O)O)cc4)nc32)[C@H](O)[C@@H]1O` [CGS21680], the locomotor activity [1] is reported as “did not exhibit such deterioration, but showed improvement in the locomotor activity”, the blood glucose level [2] is reported as “reduced the aberrantly elevated blood glucose level in R6/2 mice to a level comparable to that in the wild type mice” and the “adenylyl cyclase activities induced by the compound, R6/2 vs wild type mice” value [3] is reported as “much higher level than those in the wild type mice”. For the same compound, the “size of ventricular enlargement” value [4] was 0.91±0.14 mm^2, the “reduction of AMPK phosphorylation level (Thr172)” value ([5]; vs vehicle) was “about 35%” and the AMPK protein level ([5]; compared with vehicle R6/2 and wild type) was “about the same AMPK protein level”. The “motor coordination (rotarod performance)” value [6] was “No difference was found” and the “striatum expression level of trophic factors” value [7] was “did not change”.
